Laboratory results taken from patent US11957695B2, “Methods and compositions targeting glucocorticoid signaling for modulating immune responses” (The Broad Institute, Inc., priority 2018, dated 2024).
“And” between values parts separate entries of the source, which are not always exact repeats. Equal entries are not always repeated.

B1: IL-27: heterodimeric cytokine and a member of the IL-12 family of cytokines that is produced by antigen presenting cells (protein, UniProt Q8NEV9 29-243; Q14213 21-229, looked up)
Interleukin-27 subunit alpha: FPRPPGRPQLSLQELRREFTVSLHLARKLLSEVRGQAHRFAESHLPGVNLYLLPLGEQLPDVSLTFQAWRRLSDPERLCFISTTLQPFHALLGGLGTQGRWTNMERMQLWAMRLDLRDLQRHLRFQVLAAGFNLPEEEEEEEEEEEEERKGLLPGALGSALQGPAQVSWPQLLSTYRLLHSLELVLSRAVRELLLLSKAGHSVWPLGFPTLSPQP
Interleukin-27 subunit beta: RKGPPAALTLPRVQCRASRYPIAVDCSWTLPPAPNSTSPVSFIATYRLGMAARGHSWPCLQQTPTSTSCTITDVQLFSMAPYVLNVTAVHPWGSSSSFVPFITEHIIKPDPPEGVRLSPLAERQLQVQWEPPGSWPFPEIFSLKYWIRYKRQGAARFHRVGPIEATSFILRAVRPRARYYVQVAAQDLTDYGELSDWSLPATATMSLGK

How the values were obtained:
[1] = in vivo; cited from earlier work
[2] = target: T1, glucocorticoid receptor (GR) (Homo sapiens, UniProt P04150); settings: cited from earlier work
T1 sequence (P04150 1-777): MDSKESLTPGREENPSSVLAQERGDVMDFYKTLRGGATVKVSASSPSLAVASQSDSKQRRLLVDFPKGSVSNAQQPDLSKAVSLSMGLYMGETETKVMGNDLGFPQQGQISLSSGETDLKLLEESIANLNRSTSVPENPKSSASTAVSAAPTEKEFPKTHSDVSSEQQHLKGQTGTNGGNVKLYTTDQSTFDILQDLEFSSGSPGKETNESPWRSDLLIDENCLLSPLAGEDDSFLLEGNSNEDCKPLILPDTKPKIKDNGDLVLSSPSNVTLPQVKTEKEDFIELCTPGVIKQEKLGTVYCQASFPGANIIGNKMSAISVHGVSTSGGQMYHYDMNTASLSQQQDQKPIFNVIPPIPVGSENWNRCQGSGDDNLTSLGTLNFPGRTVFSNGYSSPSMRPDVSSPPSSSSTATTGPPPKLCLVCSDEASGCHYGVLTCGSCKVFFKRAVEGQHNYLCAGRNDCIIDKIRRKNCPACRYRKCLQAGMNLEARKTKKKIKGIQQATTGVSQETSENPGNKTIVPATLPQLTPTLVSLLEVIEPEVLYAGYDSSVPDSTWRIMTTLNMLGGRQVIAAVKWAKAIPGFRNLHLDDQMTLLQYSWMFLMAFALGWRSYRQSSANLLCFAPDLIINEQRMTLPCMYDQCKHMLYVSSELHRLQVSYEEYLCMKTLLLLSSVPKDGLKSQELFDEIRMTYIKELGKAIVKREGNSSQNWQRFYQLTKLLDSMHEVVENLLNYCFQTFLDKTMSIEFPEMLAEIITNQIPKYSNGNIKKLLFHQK

Naïve CD8+ T cells [3] = test: RNA-Seq of naïve CD8+ T cells cultured with anti CD3/28 in the presence of Dex (GC), IL-27 or GC+IL-27 (Tables 1, 2A, 2B, 5-7); assay type: cell-based, mouse
Method: (§1) Cell culture and treatment with glucocorticoid. CD8^+ T cells from splenocytes and lymph nodes were isolated using CD8 microbeads (Miltenyi). Cells were further stained with antibodies against CD8, CD62L and CD44, and CD8^+CD62L^hiCD44^lo naive cells were sorted by BD FacsAria (BD Biosciences). Sorted cells were cultured for 9 days as described below in DMEM supplemented with 10% (vol/vol) FCS, […], 1 mM sodium pyruvate, nonessential amino acids, L-glutamine, and 100 U/ml penicillin and 100 µg/ml streptomycin.
RNA-Seq data pre-processing. […] Heatmap figures were generated using pheatmap package^53.
Analysis of additive and non-additive effects. To test whether the glucocorticoid and IL-27 signaling pathways had additive or non-additive effects on gene expression, Applicants stimulated naïve CD8^+ T cells in the presence of Dex, IL-27, or Dex+IL-27 in vitro. Applicants tested for non-additive effects between IL-27 and glucocorticoid signaling using a negative binomial generalized linear model in order to account for both estimations of the mean and the dispersion across conditions, where dispersion describes the relationship between the mean and variance. The model was applied to the expression data using ANOVA between a model that takes into account the interaction between IL27 and Dex versus no interaction.

Naïve CD8+ T cells [4] = test: Quantitative RT-PCR of Prdm1, Nfil3 and Tcf7 in Ctrl, GC, IL-27 or GC+IL-27 treated cells; assay type: cell-based, mouse
Method: as §1
Quantitative PCR. Total RNA was extracted using RNeasy columns (Qiagen). Reverse transcription of mRNA was performed in a thermal cycler (Bio-Rad) using iScript cDNA Synthesis Kit (Bio-Rad). qPCR was performed in the Vii7 Real-Time PCR system (Applied Biosystems) using the primers for Taqman gene expression (Applied Biosystems). Data were normalized to the expression of Actb.

| Molecule | Terminal half-life [1] [h] | Glucocorticoid potency [2] | also measured |
| --- | --- | --- | --- |
| C[C@]12C=CC(=O)C=C1CC[C@@H]1[C@@H]2C(=O)C[C@@]2(C)[C@H]1CC[C@]2(O)C(=O)CO [Prednisone] | 16 to 36 | – | – |
| CC(=O)OCC(=O)[C@H]1CC[C@H]2[C@@H]3CCC4=CC(=O)CC[C@]4(C)[C@H]3CC[C@]12C [Deoxycorticosterone acetate] | – | 0 | – |
| C[C@]12C=CC(=O)C=C1CC[C@@H]1[C@@H]2[C@@H](O)C[C@@]2(C)[C@H]1CC[C@]2(O)C(=O)CO [Prednisolone] | 16 to 36 | 4 | – |
| C[C@H]1C[C@@H]2[C@H]([C@@H](O)C[C@@]3(C)[C@H]2CC[C@]3(O)C(=O)CO)[C@@]2(C)C=CC(=O)C=C12 [Methylprednisolone] | 18 to 40 | – | – |
| C[C@]12CCC(=O)C=C1CC[C@@H]1[C@@H]2C(=O)C[C@@]2(C)[C@H]1CC[C@]2(O)C(=O)CO [Cortisone] | – | 0.8 | – |
| C[C@]12C=CC(=O)C=C1CC[C@H]1[C@@H]3C[C@@H](O)[C@](O)(C(=O)CO)[C@@]3(C)C[C@H](O)[C@@]12F [Triamcinolone] | 12 to 36 | 5 | – |
| C[C@]12CCC(=O)C=C1CC[C@@H]1[C@@H]2[C@@H](O)C[C@@]2(C)[C@H]1CC[C@]2(O)C(=O)CO [Cortisol (hydrocortisone), Cortisol] | – | 1 | – |
| B1 | – | – | transcriptional state of stimulated CD8+ T cells (Naïve CD8+ T cells [3]; FIG. 12): transcriptionally distinct; Tcf7 expression levels (Naïve CD8+ T cells [3]; three values per treatment, control cells 9.93, 8.28, 11.45): 5.37 and 7.39 and 5.57; Nupr1 expression levels (Naïve CD8+ T cells [3]; three values per treatment, control cells 12.77, 13.57, 13.47): 11.93 and 21.86 and 19.79; CD28 expression levels (Naïve CD8+ T cells [3]; three values per treatment, control cells 19.54, 18.14, 18.29): 48.93 and 37.2 and 39.84; Lilrb4 expression levels (Naïve CD8+ T cells [3]; three values per treatment, control cells 87.12, 92.82, 96.51): 73.62 and 94.25 and 105.87; Tcf7 expression (qPCR) (Naïve CD8+ T cells [4]): dramatically reduced |
